Results from US5122368A, “Anthracycline conjugates having a novel linker and methods for their production” (Bristol-Myers Squibb Company, priority 1989, dated 1992).
Several values for one entry are separate records, joined by “and”; a condition that tells them apart may be missing. Equal entries are not always repeated. Entries after “also recorded” stand apart in the source; their conditions may differ. Structures can show the parent of a compound that is named as a salt. Where two headings read alike, the source gives them in different places.

Experiments:
Ramos tumor xenografts = experiment: In vivo anti-tumor activity on Ramos tumor xenografts; parameters: species or system BALB/c nude mice; conditions: Q7D×3, i.v. (title: Q1D×1; i.v.)
[1] = for % Deaths / D/T, # Deaths/Total Treated: Daudi or Ramos bearing mice
Daudi tumor xenografts = experiment: In vivo anti-tumor activity on Daudi tumor xenografts; conditions: for anti-tumor activity: Q5D×2 (days 20 and 25), 4.1 mg/kg/inj ADM and/or 630 mg/kg/inj 5E9
EGF receptor = target: T1, EGF receptor (Homo sapiens, UniProt P00533); experiment: 125I-EGF competition radioisotope assay on A431 cells; type: binding; conditions: 4° C., 4 h
T1 construct: endogenous in cells; host or cells: A431 cells
Method: The retention of EGF binding activity after chemical coupling of ADM-HZN to EGF was determined by a competition radioisotope assay, using the A431 cell line. This cell line was derived from a […] and in our laboratory can bind between 1-4×10^7 molecules of EGF (results not shown). Cells, diluted in RPMI 1640 growth medium containing 10% FCS, were plated in 96-well microtiter plates (5×10^5 cells/well) 24 h before the assay. On the day of the assay, the A431 cells, which grow as an adherent cell population, were washed in DMEM containing 2% bovine serum albumin (hereafter referred to as buffer A). Cells (in triplicate) were incubated with 0.05 ml of 2-fold serially diluted EGF or EGF-ADM, and 0.05 ml of ^125 I-labeled EGF (50 ng/ml) diluted in buffer A (final volume: 0.1 ml/well). The cells were incubated at 4° C. for 4 h, and then washed 3 times with buffer A. The cells were removed from the 96-well plastic plates by solubilization with 1.0M NaOH, and the amount of cell-bound ^125 I-EGF was determined by counting on a LKB model 1272 gamma counter.

[2] = N=1, Q1D×1, i.v., ADM 14 mg/kg/inj, cumulative 14
[3] = N=1, Q2D×2, i.v., ADM 8 mg/kg/inj, cumulative 16
[4] = N=1, Q2D×2, i.v., ADM 10 mg/kg/inj, cumulative 20
[5] = N=1, Q2D×2, i.v., ADM 15 mg/kg/inj, cumulative 30
[6] = N=1, Q3D×2, i.v., ADM 12 mg/kg/inj, cumulative 24
[7] = N=1, Q3D×2, i.v., ADM 14 mg/kg/inj, cumulative 28
[8] = N=1, Q3D×2, i.v., ADM 16 mg/kg/inj, cumulative 32
[9] = N=1, Q4D×2, i.v., ADM 10 mg/kg/inj, cumulative 20
[10] = N=1, Q4D×2, i.v., ADM 14 mg/kg/inj, cumulative 28
[11] = N=1, Q4D×3, i.p., ADM 5 mg/kg/inj, cumulative 15
[12] = N=1, Q5D×2, i.p., ADM 4.1 mg/kg/inj, cumulative 8.2
[13] = N=1, Q5D×2, i.p., ADM 5.5 mg/kg/inj, cumulative 11
[14] = N=1, Q7D×3, i.v., ADM 12 mg/kg/inj, cumulative 36
[15] = N=1, Q8D×2, i.p., ADM 5 mg/kg/inj, cumulative 10
[16] = N=1, Q8D×2, i.p., ADM 10 mg/kg/inj, cumulative 20
[17] = N=1, Q8D×2, i.p., ADM 13 mg/kg/inj, cumulative 26
[18] = N=2, Q2D×2, i.v., ADM 12 mg/kg/inj, cumulative 24
[19] = N=2, Q4D×2, i.v., ADM 12 mg/kg/inj, cumulative 24
[20] = N=3, Q1D×1, i.v., ADM 16 mg/kg/inj, cumulative 16
[21] = N=3, Q7D×3, i.v., ADM 10 mg/kg/inj, cumulative 30
[22] = N=3, Q7D×3, i.v., ADM 11 mg/kg/inj, cumulative 33
[23] = N=4 experiments, Q1D×1, i.v., ADM 18 mg/kg/inj, cumulative 18
[24] = Daudi-bearing mice, 5 mg/kg/inj, cum 10, Q8D×2, i.p.
[25] = Daudi-bearing mice, 5 mg/kg/inj, cum 15, Q4D×3, i.p.
[26] = Daudi-bearing mice, 5 mg/kg/inj, cum 15, Q7D×3, i.p.
[27] = Daudi-bearing mice, 5 mg/kg/inj, cum 15, Q7D×3, i.v.
[28] = Daudi-bearing mice, 10 mg/kg/inj, cum 30, Q7D×3, i.p.
[29] = Daudi-bearing mice, 11 mg/kg/inj, cum 33, Q7D×3, i.v., hydrochloride, 11 mg/kg
[30] = Daudi-bearing mice, 12 mg/kg/inj, cum 12, Q1D×1, i.v.
[31] = Daudi-bearing mice, 13 mg/kg/inj, cum 26, Q8D×2, i.p.
[32] = Daudi-bearing mice, 15 mg/kg/inj, cum 15, Q1D×1, i.v.
[33] = Daudi-bearing mice, 18 mg/kg/inj, cum 18, Q1D×1, i.v.
[34] = Daudi-bearing mice, 20 mg/kg/inj, cum 20, Q1D×1, i.v.
[35] = Ramos-bearing mice, 16 mg/kg/inj, Q7D×3, i.v. (title: Q1D×1; i.v.)
[36] = Ramos-bearing mice, 18 mg/kg/inj, Q7D×3, i.v. (title: Q1D×1; i.v.)
[37] = 4.1 mg/kg/inj, cum 8.2, Q5D×2, i.p.
[38] = 4.5 mg/kg/inj, cum 9, Q5D×2, i.p.
[39] = 5 mg/kg/inj, cum 15, Q7D×3, i.v.
[40] = 5.5 mg/kg/inj, cum 11, Q5D×2, i.p.
[41] = 9 mg/kg/inj, cum 27, Q7D×3, i.v.
[42] = 11 mg/kg/inj, cum 33, Q7D×3, i.v., hydrochloride
[43] = 12 mg/kg/inj, cum 36, Q7D×3, i.v., hydrochloride

Compound: COc1cccc2c1C(=O)c1c(O)c3c(c(O)c1C2=O)C[C@@](O)(C(=O)CO)C[C@@H]3O[C@H]1C[C@H](N)[C@H](O)[C@H](C)O1 [ADM-HCl, adriamycin hydrochloride]
- CR, complete regressions (Ramos tumor xenografts; 16 mg/kg/inj): 0
- Cures (Ramos tumor xenografts; 16 mg/kg/inj): 0
- T-C, delay to reach 3000 mm^3 vs untreated controls (Ramos tumor xenografts; 16 mg/kg/inj): 5 days
- TDD, tumor doubling delay (Ramos tumor xenografts; 16 mg/kg/inj): 0.3
- CR, complete regressions (Ramos tumor xenografts; 18 mg/kg/inj): 0
- Cures (Ramos tumor xenografts; 18 mg/kg/inj): 0
- T-C, delay to reach 3000 mm^3 vs untreated controls (Ramos tumor xenografts; 18 mg/kg/inj): 8 days
- TDD, tumor doubling delay (Ramos tumor xenografts; 18 mg/kg/inj): 0.5
- % Deaths [1, 2]: 0%
- D/T, # Deaths/Total Treated [1, 2]: 0/8
- % Deaths [1, 3]: 20%
- D/T, # Deaths/Total Treated [1, 3]: 1/5
- % Deaths [1, 4]: 60%
- D/T, # Deaths/Total Treated [1, 4]: 3/5
- % Deaths [1, 5]: 100%
- D/T, # Deaths/Total Treated [1, 5]: 7/7
- % Deaths [1, 6]: 75%
- D/T, # Deaths/Total Treated [1, 6]: 6/8
- % Deaths [1, 7]: 88%
- D/T, # Deaths/Total Treated [1, 7]: 7/8
- % Deaths [1, 8]: 100%
- D/T, # Deaths/Total Treated [1, 8]: 8/8
- % Deaths [1, 9]: 25%
- D/T, # Deaths/Total Treated [1, 9]: 2/8
- % Deaths [1, 10]: 86%
- D/T, # Deaths/Total Treated [1, 10]: 6/7
- % Deaths [1, 11]: 67%
- D/T, # Deaths/Total Treated [1, 11]: 6/9
- % Deaths [1, 12]: 20%
- D/T, # Deaths/Total Treated [1, 12]: 1/5
- % Deaths [1, 13]: 0%
- D/T, # Deaths/Total Treated [1, 13]: 0/8
- % Deaths [1, 14]: 50%
- D/T, # Deaths/Total Treated [1, 14]: 4/8
- % Deaths [1, 15]: 38%
- D/T, # Deaths/Total Treated [1, 15]: 3/8
- % Deaths [1, 16]: 100%
- D/T, # Deaths/Total Treated [1, 16]: 8/8
- % Deaths [1, 17]: 100%
- D/T, # Deaths/Total Treated [1, 17]: 7/7
- % Deaths [1, 18]: 83%
- D/T, # Deaths/Total Treated [1, 18]: 10/12
- % Deaths [1, 19]: 47%
- D/T, # Deaths/Total Treated [1, 19]: 7/15
- % Deaths [1, 20]: 10%
- D/T, # Deaths/Total Treated [1, 20]: 3/31
- % Deaths [1, 21]: 0%
- D/T, # Deaths/Total Treated [1, 21]: 0/24
- % Deaths [1, 22]: 15%
- D/T, # Deaths/Total Treated [1, 22]: 4/26
- % Deaths [1, 23]: 44%
- D/T, # Deaths/Total Treated [1, 23]: 14/32
- D/T, deaths/total animals ([1]; Daudi-bearing mice, 4.1 mg/kg/inj, cum 8.2, Q5D×2, i.p.): 1/5
- D/T, deaths/total animals ([1]; Daudi-bearing mice, 4.5 mg/kg/inj, cum 9, Q5D×2, i.p., hydrochloride, 4.5 mg/kg): 0/5 and 0/8
- D/T, deaths/total animals [1, 24]: 3/8
- Toxicity (%), deaths [1, 24]: 37%
- D/T, deaths/total animals [1, 25]: 6/9
- Toxicity (%), deaths [1, 25]: 67%
- D/T, deaths/total animals [1, 26]: 6/9
- Toxicity (%), deaths [1, 26]: 67%
- D/T, deaths/total animals [1, 27]: 1/9
- Toxicity (%), deaths [1, 27]: 11%
- D/T, deaths/total animals ([1]; Daudi-bearing mice, 5.5 mg/kg/inj, cum 11, Q5D×2, i.p.): 0/8
- D/T, deaths/total animals ([1]; Daudi-bearing mice, 9 mg/kg/inj, cum 27, Q7D×3, i.v.): 0/10
- D/T, deaths/total animals ([1]; Daudi-bearing mice, 10 mg/kg/inj, cum 20, Q8D×2, i.p.): 8/8
- D/T, deaths/total animals [1, 28]: 8/8
- Toxicity (%), deaths [1, 28]: 100%
- D/T, deaths/total animals ([1]; Daudi-bearing mice, 10 mg/kg/inj, cum 30, Q7D×3, i.v., hydrochloride, 10 mg/kg): 0/8 and 0/7
- D/T, deaths/total animals [1, 29]: 2/8 and 2/10 and 0/8
- Toxicity (%), deaths [1, 29]: 25% and 20%
- D/T, deaths/total animals [1, 30]: 7/7
- Toxicity (%), deaths [1, 30]: 100%
- Toxicity (%), deaths ([1]; Daudi-bearing mice, 12 mg/kg/inj, cum 36, Q7D×3, i.v.): 50%
- D/T, deaths/total animals ([1]; Daudi-bearing mice, 12 mg/kg/inj, cum 36, Q7D×3, i.v., hydrochloride, 12 mg/kg): 4/8 and 2/8
- D/T, deaths/total animals [1, 31]: 7/7
- Toxicity (%), deaths [1, 31]: 100%
- D/T, deaths/total animals [1, 32]: 7/7
- Toxicity (%), deaths [1, 32]: 100%
- D/T, deaths/total animals [1, 33]: 6/8
- Toxicity (%), deaths [1, 33]: 75%
- D/T, deaths/total animals [1, 34]: 7/7
- Toxicity (%), deaths [1, 34]: 100%
- MTD (maximum tolerated dose) ([1]; Q7D×3, i.v.): 11 mg/kg/inj
- D/T, deaths/total animals [1, 35]: 1/8
- Toxicity (%), deaths (lethality) [1, 35]: 12%
- D/T, deaths/total animals [1, 36]: 2/8
- Toxicity (%), deaths (lethality) [1, 36]: 25%
- MTD (maximum tolerated dose) ([1]; i.p.): 4-5 mg/kg/inj
- CR, complete regressions (Daudi tumor xenografts; [37]): 0
- Cures (Daudi tumor xenografts; [37]): 0
- T-C, delay to reach 3000 mm^3 vs untreated controls (Daudi tumor xenografts; [37]): 0 days
- TDD, tumor doubling delay (Daudi tumor xenografts; [37]): 0
- CR, complete regressions (Daudi tumor xenografts; [38]): 0
- Cures (Daudi tumor xenografts; [38]): 0
- T-C, delay to reach 3000 mm^3 vs untreated controls (Daudi tumor xenografts; [38]): 2.2 days
- CR, complete regressions (Daudi tumor xenografts; [39]): 2
- Cures (Daudi tumor xenografts; [39]): 0
- T-C, delay to reach 3000 mm^3 vs untreated controls (Daudi tumor xenografts; [39]): 6.2 days
- TDD, tumor doubling delay (Daudi tumor xenografts; [39]): 0.18
- CR, complete regressions (Daudi tumor xenografts; [40]): 0
- Cures (Daudi tumor xenografts; [40]): 0
- T-C, delay to reach 3000 mm^3 vs untreated controls (Daudi tumor xenografts; [40]): 2.2 days
- TDD, tumor doubling delay (Daudi tumor xenografts; [40]): .1
- CR, complete regressions (Daudi tumor xenografts; [41]): 0
- Cures (Daudi tumor xenografts; [41]): 1
- T-C, delay to reach 3000 mm^3 vs untreated controls (Daudi tumor xenografts; [41]): 23 days
- TDD, tumor doubling delay (Daudi tumor xenografts; [41]): 0.9
- CR, complete regressions (Daudi tumor xenografts; 10 mg/kg/inj, cum 30, Q7D×3, i.v.): 0
- TDD, tumor doubling delay (Daudi tumor xenografts; 10 mg/kg/inj, cum 30, Q7D×3, i.v., hydrochloride): 0.7 and 0.8
- T-C, delay to reach 3000 mm^3 vs untreated controls (Daudi tumor xenografts; [42]): 28 days and > 42 days and 21 days
- TDD, tumor doubling delay (Daudi tumor xenografts; [42]): 1.1 and > 1.3 and 0.7 and > 1.1
- Cures (Daudi tumor xenografts; 12 mg/kg/inj, cum 36, Q7D×3, i.v.): 3
- T-C, delay to reach 3000 mm^3 vs untreated controls (Daudi tumor xenografts; [43]): > 62 days and > 33 days
- TDD, tumor doubling delay (Daudi tumor xenografts; [43]): > 2.0 and > 1.5
- anti-tumor activity (Daudi tumor xenografts; i.p., hydrochloride): no anti-tumor activity
- anti-tumor activity (Daudi tumor xenografts; i.p., listed as ADM, hydrochloride): inactive
- growth inhibition of Daudi tumor xenografts (Daudi tumor xenografts; Q7D×3, i.v., 9, 10 or 11 mg/kg/injection): significantly inhibited in a dose dependent fashion
- anti-tumor activity at MTD (Daudi tumor xenografts; i.p. route, MTD): inactive

Compound: EGF-ADM: SPDP-thiolated murine EGF reacted with ADM-HZN, 13-keto acylhydrazone linker
- inhibition of 125I-EGF binding, binding activity vs unconjugated EGF (EGF receptor): only a small loss in binding activity; also recorded: retention of binding activity
